Experimental data taken from patent publication US20030064967A1 (priority 2001, published 2003).
“And” between values parts separate entries of the source, which are not always exact repeats. Equal values may be shown once.

Legend:
[1] = system: hypercholesterolemic hamsters; type: in vivo
Method: The following assay was conducted to HDL elevation in hamsters. Male Golden Syrian hamsters weighing 110-120 g were obtained from Charles River Laboratories (Wilmington, Mass.). Hamsters were housed individually with wood chip bedding and soft nesting material with lights on a 6 A.M. and off at 6 p.m. Upon arrival the hamsters were acclimated for three days on standard rodent chow and water (Purina rodent chow 5001) ad libitum. Prior to dosing, the hamsters were made hypercholesterolemic by feeding them a powdered diet supplemented with 0.5% cholesterol and 10% coconut oil (Harlan Teklad diet #97235) for one week. Water was added to the powdered chow to form a paste and the chow paste rolled into balls with each animal receiving 20 g of chow paste per day in stainless steel bowls. Chow intake was recorded daily. Body weights were recorded after one week and at the end of the end of the study. Hamsters were distributed into treatment groups after the one-week pretreatment period such that each group had similar average body weights.
Compounds were added to a high cholesterol chow paste and administered as an admixture at the same time each morning for two weeks. At the end of the treatment period the hamsters were fasted in the late afternoon on the day prior to blood collection. Fasting was achieved by transferring the hamsters to clean cages and removing chow stored in cheek pouches. Hamsters were anesthetized with ketamine/rompun solution. When unresponsive to toe pinch and still respiring, blood was collected via cardiac puncture from which plasma was separated and frozen at −80° C.
Lipoproteins were isolated from whole plasma by Fast Phase Liquid Chromatography (FPLC). Cholesterol and triglyceride concentrations in the different lipoprotein fractions were determined by enzymatic methods using a CX-5 chemical analyzer and standard Beckman reagents.
A Dunnetts test was used to compare the experimental and control groups. P<0.05: was considered significant.

[2] = system: human apo A-1 transgenic mice; assay: HDL cholesterol and human apoAI levels in human apo-A1 transgenic mice (InVivo II); type: in vivo
Method: The following assay was conducted to evaluate the effect of Compound A on HDL cholesterol levels in Human apo-A1 transgenic mice. Six-eight week old male human apo A-1 transgenic mice (catolog number JR 1927) were obtained from Jackson Labs. Upon arrival the mice were acclimated for three days on standard rodent diet and water ad libitum. Mice were then given a diet supplemented with 1.25% cholesterol, 7.5% cocoa butter and 0.5% sodium cholate for two weeks. Compound A was administered to the animals by gavage in methylcellulose at a dose of 150 mg/kg/d for two weeks concomitant with the high fat diet. At the end of the treatment period the mice were fasted overnight and then euthanized by CO2 inhalation. Blood was collected by cardiac puncture. Plasma was fractionated by fast phase liquid chromatography and cholesterol in the different lipoprotein fractions determined by an enzymatic assay. An ELISA was completed shoing an increase of h-apoAI of 65%.

HepG2 cells [3] = assay: Cell culture assay and ELISA for apoAI HDL increase in HepG2 cells; type: cell-based, human
Method: A cell culture assay and ELISA was conducted to measure apoAi HDL increase in HepG2 cells were obtained from the American Type Culture Collection (Rockville, Md.). Fetal bovine serum (FBS) was purchased from Gibco Laboratories. Cells were cultured in minimum essential medium (MEM) containing 10% FBS, and 100 μg/mL of streptomycin, 100 unit/mL of penicillin, and 4 mM of glutamine (Gibco/BRL). Cells were grown for 2 days till they are 80% confluent in 6-well, or 12-well plates before studies. In all cases medium was changed every other day. To measure apoAI, 96-well microtiter plates were coated with a 1:1000 diluted mixture of three monoclonal antibodies against human apoAI (A05, A17, and A44) for 2 h and incubated in succession with HDL3 (0 to 15 ng/well), sheep polyclonal anti-apoAI serum (Boehringer Mannheim), alkaline phosphatase-labeled rabbit anti-sheep (Cappel), and p-nitrophenyl phosphate (1 mg/mL in 10 mmol/L ethanolamine, 0.5 mmol/L MgCl2, pH 9.5), for 2, 1 and 1 h respectively at 37° C. The plates were washed three times between different incubations. The absorbance at 405 nm was determined by using a Bio-Rad model 550 microplate reader (Bio-Rad).

HepG2 cells [4] = assay: Uptake of 3[H]cholesteryl hexadecyl ether-labeled HDL in HepG2 cells; type: cell-based; settings: for % 3[H]-CE uptake: 12.5 μM compound, 20-50 μg/mL 3[H]-CE HDL, 3.5 h, 37° C.; for clearance / selective uptake of cholesteryl ester: HepG2 cells
Method: An in vitro assay was conducted to measure the uptake of ^3[H]cholesteryl Hexadecyl Ether-labeled HDL in HepG2 cells. ^3[H]cholesteryl Hexadecyl Ether-labeled HDL was prepared as described by Rodrigueza et al. (Rodrigueza W. V. et al. (1999) J. Biol. Chem. 274:20344-20350). 40 μCi of ^3[H]hexadecyl ether (40-60 Ci/mmol, NEN life Sciences Products) were incubated with 5 mg of HDL3 and 240 mg of heat-inactivated lipoprotein-deficient plasma, 0.01% aprotinin in a polypropylene tube sealed with nitrogen gas for 40 h at 37° C. according to the method of Terpstra et al . ^3[H]-CE enriched HDL was re-isolated by flotation ultracentrifugation and dialyzed against phosphate-buffered saline (PBS). To perform CE uptake studies, HepG2 cells, seeded in 6 or 12 well plates were grown for 2 days till 80% confluent and, then treated with compounds in 1% RSA-DMEM medium for 24 h. The next day, cells were treated with 12.5 μM compounds and 20-50 μg/mL of ^3[H]-CE HDL for 3.5 h at 37° C. After incubation, cells were washed 4 times with PBS/BSA and 2 times with PBS, followed by addition of 0.1 N NAOH. Cells were collected, and radioactivity was measured in counts per minute and expressed as percent of ^3[H]-CE delivered to cells.

HepG2 cells [5] = assay: Internalization and degradation of 125I-HDL3 by HepG2 cells; type: cell-based
Method: In another aspect of the invention, compounds that increase the levels of plasma HDL holoproteins can be selected using the following process. First, the compound is added to a hepatic model, preferably hepatic cells, more preferably HepG2 cells. Labeled apoAI-HDL, preferably a radioactive isotope label, more preferably ^125I, in the presence or absence of compounds is then added to the cells. The […] labeled apoAI-HDL in the conditioned medium represents degraded labeled apoAI-HDL. After washing and detaching, cells are centrifuged. Labeled apoAI-HDL in the cellular fraction represents internalized HDL holoprotein; whereas, label in the supernatant represents cell surface bound apoAI-HDL that has been dissociated. Increased amounts of labeled HDL in cells treated with compounds versus cells not treated with compounds indicates increased degradation, internalization, or binding to the cell surface. Compounds are selected which […] the amount of apoAI-HDL label in the cellular fraction of the cells contacted with a test compound compared to the amount of label in the cellular fraction of the cells not contacted with the test compound.
In another aspect of the invention, compounds that increase the levels of plasma HDLc can be selected by contacting a hepatic model, preferably hepatic cells, more preferably HepG2 cells with test compounds. Labeled apoAI-HDL, preferably a radioactive isotope label, more preferably ^125I, in the presence or absence of compounds is then added to the cells. Label in the conditioned medium represents degraded labeled-HDL. After washing and detaching, cells are centrifuged. Label in the cellular fraction represents internalized HDL holoprotein; whereas, label in the supernatant represents cell surface bound apoAI-HDL that has been dissociated. Increased amounts of label in cells treated with compounds versus cells not treated with compounds indicates increased degradation, internalization, or binding of apoAI-HDL to the cell surface. […]

[6] = type: in vivo; settings: one study; 150 mg/kg/d by gavage in methylcellulose
apoAI = assay: Synthesis of apoAI

CC(C)(Sc1cc(C(C)(C)C)c(O)c(C(C)(C)C)c1)Sc1cc(C(C)(C)C)c(OC(=O)CCCC(=O)O)c(C(C)(C)C)c1 [Compound A, Pentanedioic Acid, mono[4-[[1-[[3,5-bis(1,1-dimethylethyl)-4-hydroxyphenyl]thio]-1-methylethyl]thio]-2,6-bis(1,1-dimethylethyl)phenyl]ester]
HDLc elevation, range of three experiments ([1]; 150 mg/kg/d, two weeks): 5-44%
body weight ([1]; 150 mg/kg/d, two weeks): all animals gained weight
tolerability ([1]; 150 mg/kg/d, two weeks): well tolerated
HDLc elevation compared to untreated controls ([1]; average of three experiments, 150 mg/kg/d, two weeks, in chow): 22%
LDLc reduction compared to controls ([1]; average, n=3, 150 mg/kg/d, two weeks): 29%
increase in HDL cholesterol levels (FIG. 1) ([1]; hypercholesterolemic hamsters): 24%
VLDL cholesterol reduction compared to controls ([1]; n=3, 150 mg/kg/d, two weeks): 42%
VLDL cholesterol reduction, range ([1]; n=3, 150 mg/kg/d, two weeks): 22-53%
triglycerides reduction compared to controls ([1]; n=3, 150 mg/kg/d, two weeks): 24%
triglycerides reduction, range ([1]; n=3, 150 mg/kg/d, two weeks): 7-33%
increase of human apoAI (ELISA) ([2]; 150 mg/kg/d by gavage, two weeks, high fat diet): 64% and 65%
increase in HDL cholesterol (FIG. 7) ([2]; hypercholesterolemic human apo-AI transgenic mice): 71%
% increase apoAI HDL (HepG2 cells [3]): 33%
% 3[H]-CE uptake (HepG2 cells [4]): 42%
clearance / selective uptake of cholesteryl ester (HepG2 cells [4]): enhance the clearance of cholesteryl ester
degradation of 125I-HDL3 (HepG2 cells [5]): decreases degradation
internalization of 125I-HDL3 / HDL holoprotein uptake (HepG2 cells [5]): decreases internalization

CC(C)(Sc1cc(C(C)(C)C)c(O)c(C(C)(C)C)c1)Sc1cc(C(C)(C)C)c(OC(=O)CCCOS(=O)(=O)[O-])c(C(C)(C)C)c1.[Na+] [Compound B, 4-[4-[1-[[3,5-bis(1,1-dimethylethyl)-4-hydroxyphenyl]thio]-1-methylethyl]-thio-2,6-bis-(1,1-dimethyl-ethyl)phenoxy]-4-oxo-1-butyl Sodium Sulfate]
% increase apoAI HDL (HepG2 cells [3]): 26%
% 3[H]-CE uptake (HepG2 cells [4]): 44%
clearance / selective uptake of cholesteryl ester (HepG2 cells [4]): enhance the clearance of cholesteryl ester
mortality [6]: all of the mice died

CC(C)(Sc1cc(C(C)(C)C)c(O)c(C(C)(C)C)c1)Sc1cc(C(C)(C)C)c(OC(=O)COCC(=O)O)c(C(C)(C)C)c1 [Compound C, Carboxymethoxyacetic Acid, mono[4-[1-[[3,5-bis(1,1-dimethylethyl)-4-hydroxyphenyl]thio]-1-methyl-ethyl]-thio-2,6-bis(1,1-dimethylethyl)phenyl]ester]
% increase apoAI HDL (HepG2 cells [3]): 47%

COC(=O)CCCC(=O)Oc1c(C(C)(C)C)cc(SC(C)(C)Sc2cc(C(C)(C)C)c(O)c(C(C)(C)C)c2)cc1C(C)(C)C [Compound D, Pentanedioic Acid, [4-[1-[[3,5-bis(1,1-dimethylethyl)-4-hydroxyphenyl]thio]-1-methylethyl]-thio-2,6-bis(1,1-dimethylethyl)phenyl], Methyl Ester]
% increase apoAI HDL (HepG2 cells [3]): 27%

CC(C)(Sc1cc(C(C)(C)C)c(O)c(C(C)(C)C)c1)Sc1cc(C(C)(C)C)c(O)c(C(C)(C)C)c1 [Probucol, 4,4′-(isopropylidenedithio) bis(2,6-di-tert-butylphenol), reference compound]
% increase apoAI HDL (HepG2 cells [3]): −21%
% 3[H]-CE uptake (HepG2 cells [4]): 13%
internalization of 125I-HDL3 / HDL holoprotein uptake (HepG2 cells [5]): reduced HDL holoprotein uptake
effect on synthesis of apoAI (apoAI): reduced the synthesis of apoAI
